Results: ChEMBL document CHEMBL5055633, “Amphipathic Barbiturates as Mimics of Antimicrobial Peptides and the Marine Natural Products Eusynstyelamides with Activity against Multi-resistant Clinical Isolates” (J Med Chem, 2021)
Active and inactive are the calls of the source.

Columns and labels:
Staphylococcus aureus [1] = experiment: Antimicrobial activity against extended spectrum-lactamase-carbapenemas producing Staphylococcus aureus strain 85/2082 assessed as reduction in bacterial growth incubated for 48 hrs by microdilution method; assay type: functional
[2] = Antimicrobial activity against carbapenemase producing Klebsiella pneumoniae K47-25 assessed as reduction in bacterial growth incubated for 48 hrs by microdilution method; assay type: functional
[3] = Antimicrobial activity against New Delhi metallo-beta lactamase-1 and oxacillinase -181 producing Klebsiella pneumoniae 50531633 assessed as reduction in bacterial growth incubated for 48 hrs by microdilution method; assay type: functional
[4] = tested on: Corynebacterium glutamicum; experiment: Antimicrobial activity against Corynebacterium glutamicum ATCC 13032 assessed as reduction in bacterial growth incubated for 48 hrs by microdilution susceptibility test; assay type: functional
Pseudomonas aeruginosa [5] = experiment: Antimicrobial activity against imipenem-type carbapenemase-14 producing Pseudomonas aeruginosa K44-24 assessed as reduction in bacterial growth incubated for 48 hrs by microdilution method; assay type: functional
Enterococcus faecium [6] = experiment: Antimicrobial activity against extended spectrum-lactamase-carbapenemas producing Enterococcus faecium strain K36-18 assessed as reduction in bacterial growth incubated for 48 hrs by microdilution method; assay type: functional
Staphylococcus aureus [7] = experiment: Antimicrobial activity against Staphylococcus aureus ATCC 9144 assessed as reduction in bacterial growth incubated for 48 hrs by microdilution susceptibility test; assay type: functional
[8] = Antimicrobial activity against New Delhi metallo-beta lactamase-1 Klebsiella pneumoniae K66-45 assessed as reduction in bacterial growth incubated for 48 hrs by microdilution method; assay type: functional
Escherichia coli [9] = experiment: Antimicrobial activity against imipenem-type carbapenemase-26 producing Escherichia coli 50857972 assessed as reduction in bacterial growth incubated for 48 hrs by microdilution method; assay type: functional
Escherichia coli [10] = experiment: Antimicrobial activity against New Delhi metallo-beta lactamase-1 producing Escherichia coli 50676002 assessed as reduction in bacterial growth incubated for 48 hrs by microdilution method; assay type: functional
Staphylococcus aureus [11] = experiment: Antimicrobial activity against extended spectrum-lactamase-carbapenemas producing Staphylococcus aureus NCTC 10442 assessed as reduction in bacterial growth incubated for 48 hrs by microdilution method; assay type: functional
Pseudomonas aeruginosa [12] = experiment: Antimicrobial activity against verona integron-encoded metallo-beta-lactamase-4 producing Pseudomonas aeruginosa K34-73 assessed as reduction in bacterial growth incubated for 48 hrs by microdilution method; assay type: functional
[13] = Antimicrobial activity against verona integron-encoded metallo-beta-lactamase -1 producing Klebsiella pneumoniae 50667959 assessed as reduction in bacterial growth incubated for 48 hrs by microdilution method; assay type: functional
Staphylococcus aureus [14] = experiment: Antimicrobial activity against extended spectrum-lactamase-carbapenemas producing Staphylococcus aureus strain WIS assessed as reduction in bacterial growth incubated for 48 hrs by microdilution method; assay type: functional
Escherichia coli [15] = experiment: Antimicrobial activity against verona integron-encoded metallo-beta-lactamase-29-producing Escherichia coli 50639799 assessed as reduction in bacterial growth incubated for 48 hrs by microdilution method; assay type: functional
Acinetobacter baumannii [16] = experiment: Antimicrobial activity against oxacillinase-58 producing Acinetobacter baumannii K12-21 assessed as reduction in bacterial growth incubated for 48 hrs by microdilution method; assay type: functional
Staphylococcus aureus [17] = experiment: Antimicrobial activity against extended spectrum-lactamase-carbapenemas producing Staphylococcus aureus strain IHT 99040 assessed as reduction in bacterial growth incubated for 48 hrs by microdilution method; assay type: functional
Pseudomonas aeruginosa [18] = experiment: Antimicrobial activity against Pseudomonas aeruginosa PAO1 assessed as reduction in bacterial growth incubated for 48 hrs by microdilution susceptibility test; assay type: functional
Escherichia coli [19] = experiment: Antimicrobial activity against oxacillinase-producing Escherichia coli 50579417 assessed as reduction in bacterial growth incubated for 48 hrs by microdilution method; assay type: functional
Acinetobacter baumannii [20] = experiment: Antimicrobial activity against oxacillinase-23 producing Acinetobacter baumannii K63-58 assessed as reduction in bacterial growth incubated for 48 hrs by microdilution method; assay type: functional
HepG2 = experiment: Cytotoxicity against human HepG2 cells assessed as reduction in cell viability incubated for 24 hrs by colorimetric tetrazolium assay; assay type: functional, cell-based; settings: HepG2, 24 h
[21] = Hemolytic activity in human erythrocytes incubated for 1 hr by microplate reader; assay type: functional, cell-based; settings: erythrocyte
Pseudomonas aeruginosa [22] = experiment: Antimicrobial activity against verona integron-encoded metallo-beta-lactamase-2 producing Pseudomonas aeruginosa K34-7 assessed as reduction in bacterial growth incubated for 48 hrs by microdilution method; assay type: functional
Acinetobacter baumannii [23] = experiment: Antimicrobial activity against oxacillinase-23 producing Acinetobacter baumannii K44-35 assessed as reduction in bacterial growth incubated for 48 hrs by microdilution method; assay type: functional
Acinetobacter baumannii [24] = experiment: Antimicrobial activity against oxacillinase-24 producing Acinetobacter baumannii K55-13 assessed as reduction in bacterial growth incubated for 48 hrs by microdilution method; assay type: functional
Staphylococcus aureus [25] = experiment: Antimicrobial activity against extended spectrum-lactamase-carbapenemas producing Staphylococcus aureus N315 assessed as reduction in bacterial growth incubated for 48 hrs by microdilution method; assay type: functional
Acinetobacter baumannii [26] = experiment: Antimicrobial activity against oxacillinase-23 producing Acinetobacter baumannii K47-42 assessed as reduction in bacterial growth incubated for 48 hrs by microdilution method; assay type: functional
Enterococcus faecium [27] = experiment: Antimicrobial activity against extended spectrum-lactamase-carbapenemas producing Enterococcus faecium strain 50901530 assessed as reduction in bacterial growth incubated for 48 hrs by microdilution method; assay type: functional
Pseudomonas aeruginosa [28] = experiment: Antimicrobial activity against New Delhi metallo-beta lactamase-1 producing Pseudomonas aeruginosa 50692172 assessed as reduction in bacterial growth incubated for 48 hrs by microdilution method; assay type: functional
Escherichia coli [29] = experiment: Antimicrobial activity against Escherichia coli ATCC 25922 assessed as reduction in bacterial growth incubated for 48 hrs by microdilution susceptibility test; assay type: functional
Enterococcus faecium [30] = experiment: Antimicrobial activity against extended spectrum-lactamase-carbapenemas producing Enterococcus faecium strain TUH.50-22 assessed as reduction in bacterial growth incubated for 48 hrs by microdilution method; assay type: functional
Escherichia coli [31] = experiment: Antimicrobial activity against New Delhi metallo-beta lactamase-1 producing Escherichia coli 50739822 assessed as reduction in bacterial growth incubated for 48 hrs by microdilution method; assay type: functional
Enterococcus faecium [32] = experiment: Antimicrobial activity against extended spectrum-lactamase-carbapenemas producing Enterococcus faecium strain 50758899 assessed as reduction in bacterial growth incubated for 48 hrs by microdilution method; assay type: functional
Pseudomonas aeruginosa [33] = experiment: Antimicrobial activity against verona integron-encoded metallo-beta-lactamase producing Pseudomonas aeruginosa 50692520 assessed as reduction in bacterial growth incubated for 48 hrs by microdilution method; assay type: functional
Enterococcus faecium [34] = experiment: Antimicrobial activity against extended spectrum-lactamase-carbapenemas producing Enterococcus faecium strain 50673722 assessed as reduction in bacterial growth incubated for 48 hrs by microdilution method; assay type: functional
MRC5 = experiment: Cytotoxicity against human MRC5 cells assessed as reduction in cell viability incubated for 24 hrs by colorimetric tetrazolium assay; assay type: functional, cell-based; settings: MRC5, 24 h
[35] = Antimicrobial activity against oxacillinase-245 producing Klebsiella pneumoniae 50625602 assessed as reduction in bacterial growth incubated for 48 hrs by microdilution method; assay type: functional
Escherichia coli [36] = experiment: Membrano-lytic effect in Escherichia coli HB101 assessed as decrease in bacterial viability at 3.1 ug/ml by luciferase based real-time membrane integrity assay; assay type: functional, organism-based; settings: dose 3.1 µg/ml
Escherichia coli [37] = experiment: Antibacterial activity against in Escherichia coli HB101 assessed as decrease in bacterial viability at 3.1 ug/ml by cell viability assay; assay type: functional, organism-based; settings: dose 3.1 µg/ml
Streptococcus pneumoniae [38] = experiment: Antibacterial activity against in […] 168 assessed as decrease in bacterial viability at 6.3 ug/ml by cell viability assay; assay type: functional, organism-based; settings: dose 6.3 µg/ml
Streptococcus pneumoniae [39] = experiment: Antibacterial activity against in […] 168 assessed as decrease in bacterial viability at 3.1 ug/ml by cell viability assay; assay type: functional, organism-based; settings: dose 3.1 µg/ml
Escherichia coli [40] = experiment: Membrano-lytic effect in Escherichia coli HB101 assessed as decrease in bacterial viability at 6.3 ug/ml by luciferase based real-time membrane integrity assay; assay type: functional, organism-based; settings: dose 6.3 µg/ml
Escherichia coli [41] = experiment: Antibacterial activity against Escherichia coli HB101 assessed as decrease in bacterial viability at 6.3 ug/ml by cell viability assay; assay type: functional, organism-based; settings: dose 6.3 µg/ml

NCCCCN1C(=O)N(CCCCN)C(=O)C(Cc2cc(C(F)(F)F)cc(C(F)(F)F)c2)(Cc2cc(C(F)(F)F)cc(C(F)(F)F)c2)C1=O.O=C(O)C(F)(F)F.O=C(O)C(F)(F)F
9 µg/mL: IC50 (HepG2)
17 µg/mL: IC50 (MRC5)
8 µg/mL: MIC (Escherichia coli [9]) | MIC (Enterococcus faecium [27]) | MIC (Enterococcus faecium [30]) | MIC (Enterococcus faecium [34])
32 µg/mL: MIC [3] | MIC (Pseudomonas aeruginosa [5]) | MIC [8] | MIC (Pseudomonas aeruginosa [12]) | MIC [13] | MIC (Acinetobacter baumannii [20]) | MIC (Pseudomonas aeruginosa [22]) | MIC (Acinetobacter baumannii [23]) | MIC (Acinetobacter baumannii [24]) | MIC (Acinetobacter baumannii [26]) | MIC (Pseudomonas aeruginosa [28]) | MIC (Pseudomonas aeruginosa [33]) | MIC [35]
4 µg/mL: MIC [4]
> 32 µg/mL: MIC [2]
177 µg/mL: EC50 [21]
16 µg/mL: MIC (Staphylococcus aureus [1]) | MIC (Enterococcus faecium [6]) | MIC (Staphylococcus aureus [7]) | MIC (Escherichia coli [10]) | MIC (Staphylococcus aureus [11]) | MIC (Staphylococcus aureus [14]) | MIC (Escherichia coli [15]) | MIC (Acinetobacter baumannii [16]) | MIC (Staphylococcus aureus [17]) | MIC (Pseudomonas aeruginosa [18]) | MIC (Escherichia coli [19]) | MIC (Staphylococcus aureus [25]) | MIC (Escherichia coli [29]) | MIC (Escherichia coli [31]) | MIC (Enterococcus faecium [32])

CC(C)(C)c1ccc(CC2(Cc3ccc(C(C)(C)C)cc3)C(=O)N(CCCCNC(=N)N)C(=O)N(CCCCNC(=N)N)C2=O)cc1.O=C(O)C(F)(F)F.O=C(O)C(F)(F)F
14 µg/mL: IC50 (MRC5)
1 µg/mL: MIC (Staphylococcus aureus [7])
77 µg/mL: EC50 [21]
4 µg/mL: MIC [2] | MIC [3] | MIC [8] | MIC (Escherichia coli [9]) | MIC (Escherichia coli [10]) | MIC (Escherichia coli [15]) | MIC (Acinetobacter baumannii [16]) | MIC (Pseudomonas aeruginosa [18]) | MIC (Escherichia coli [19]) | MIC (Acinetobacter baumannii [20]) | MIC (Enterococcus faecium [27]) | MIC (Escherichia coli [31]) | MIC [35]
16 µg/mL: MIC (Pseudomonas aeruginosa [5]) | MIC [13] | MIC (Pseudomonas aeruginosa [22]) | MIC (Pseudomonas aeruginosa [28]) | MIC (Pseudomonas aeruginosa [33])
8 µg/mL: MIC (Pseudomonas aeruginosa [12]) | MIC (Acinetobacter baumannii [23]) | MIC (Acinetobacter baumannii [24]) | MIC (Acinetobacter baumannii [26])
28 µg/mL: IC50 (HepG2)
< 0.13 µg/mL: MIC [4]
2 µg/mL: MIC (Staphylococcus aureus [1]) | MIC (Enterococcus faecium [6]) | MIC (Staphylococcus aureus [11]) | MIC (Staphylococcus aureus [14]) | MIC (Staphylococcus aureus [17]) | MIC (Staphylococcus aureus [25]) | MIC (Escherichia coli [29]) | MIC (Enterococcus faecium [30]) | MIC (Enterococcus faecium [32]) | MIC (Enterococcus faecium [34])

NCCCCN1C(=O)N(CCCCN)C(=O)C(Cc2cc(Br)cc(Br)c2)(Cc2cc(Br)cc(Br)c2)C1=O.O=C(O)C(F)(F)F.O=C(O)C(F)(F)F
active: Activity (Escherichia coli [36]) | Activity (Escherichia coli [37]) | Activity (Streptococcus pneumoniae [38]) | Activity (Streptococcus pneumoniae [39]) | Activity (Escherichia coli [40]) | Activity (Escherichia coli [41])
1 µg/mL: MIC [4]
16 µg/mL: MIC [2] | MIC (Pseudomonas aeruginosa [5]) | MIC [8] | MIC (Pseudomonas aeruginosa [12]) | MIC [13] | MIC (Acinetobacter baumannii [16]) | MIC (Acinetobacter baumannii [20]) | MIC (Pseudomonas aeruginosa [22]) | MIC (Acinetobacter baumannii [23]) | MIC (Acinetobacter baumannii [24]) | MIC (Acinetobacter baumannii [26]) | MIC (Pseudomonas aeruginosa [28]) | MIC (Pseudomonas aeruginosa [33]) | MIC [35]
2 µg/mL: IC50 (MRC5)
79 µg/mL: EC50 [21]
4 µg/mL: MIC (Staphylococcus aureus [1]) | MIC (Staphylococcus aureus [7]) | MIC (Staphylococcus aureus [11]) | MIC (Staphylococcus aureus [14]) | MIC (Staphylococcus aureus [17]) | IC50 (HepG2) | MIC (Staphylococcus aureus [25]) | MIC (Enterococcus faecium [27]) | MIC (Escherichia coli [29]) | MIC (Enterococcus faecium [30]) | MIC (Enterococcus faecium [32]) | MIC (Enterococcus faecium [34])
8 µg/mL: MIC [3] | MIC (Enterococcus faecium [6]) | MIC (Escherichia coli [9]) | MIC (Escherichia coli [10]) | MIC (Escherichia coli [15]) | MIC (Pseudomonas aeruginosa [18]) | MIC (Escherichia coli [19]) | MIC (Escherichia coli [31])
